Test results taken from the NIST ThermoML archive (doi:10.1021/je700428f).

Test: xn = mol fraction of the nth substance listed
Details: 101 kPa, Liquid; for viscosity: Capillary tube (Ostwald / Ubbelohde) method

COC(C)(C)C [2-methoxy-2-methylpropane] + CCCCCCCCCC
Details	mass density [kg/m3]	viscosity [mPa·s]
273.15 K, x1 = 0.1016	–	1.2
273.15 K, x1 = 0.1019	745.52	–
273.15 K, x1 = 0.2002	–	1.093
273.15 K, x1 = 0.2041	746.17	–
273.15 K, x1 = 0.3003	–	1.004
273.15 K, x1 = 0.3077	747.06	–
273.15 K, x1 = 0.3999	748	–
273.15 K, x1 = 0.4013	–	0.909
273.15 K, x1 = 0.4992	–	0.822
273.15 K, x1 = 0.5005	749.23	–
273.15 K, x1 = 0.6005	–	0.741
273.15 K, x1 = 0.6066	750.84	–
273.15 K, x1 = 0.6866	752.32	–
273.15 K, x1 = 0.7	–	0.659
273.15 K, x1 = 0.7973	754.83	–
273.15 K, x1 = 0.8005	–	0.584
273.15 K, x1 = 0.8996	–	0.513
273.15 K, x1 = 0.8999	757.82	–
273.15 K, x1 = 1	761.34	–
278.15 K, x1 = 0.1016	–	1.092
278.15 K, x1 = 0.1019	741.7	–
278.15 K, x1 = 0.2002	–	1.002
278.15 K, x1 = 0.2041	742.28	–
278.15 K, x1 = 0.3003	–	0.924
278.15 K, x1 = 0.3077	743.09	–
278.15 K, x1 = 0.3999	743.94	–
278.15 K, x1 = 0.4013	–	0.841
278.15 K, x1 = 0.4992	–	0.765
278.15 K, x1 = 0.5005	745.06	–
278.15 K, x1 = 0.6005	–	0.689
278.15 K, x1 = 0.6066	746.53	–
278.15 K, x1 = 0.6866	747.9	–
278.15 K, x1 = 0.7	–	0.615
278.15 K, x1 = 0.7973	750.21	–
278.15 K, x1 = 0.8005	–	0.547
278.15 K, x1 = 0.8996	–	0.481
278.15 K, x1 = 0.8999	752.99	–
278.15 K, x1 = 1	756.14	–
283.15 K, x1 = 0.1016	–	1.001
283.15 K, x1 = 0.1019	737.88	–
283.15 K, x1 = 0.2002	–	0.923
283.15 K, x1 = 0.2041	738.38	–
283.15 K, x1 = 0.3003	–	0.855
283.15 K, x1 = 0.3077	739.1	–
283.15 K, x1 = 0.3999	739.86	–
283.15 K, x1 = 0.4013	–	0.779
283.15 K, x1 = 0.4992	–	0.713
283.15 K, x1 = 0.5005	740.87	–
283.15 K, x1 = 0.6005	–	0.643
283.15 K, x1 = 0.6066	742.2	–
283.15 K, x1 = 0.6866	743.44	–
283.15 K, x1 = 0.7	–	0.575
283.15 K, x1 = 0.7973	745.55	–
283.15 K, x1 = 0.8005	–	0.513
283.15 K, x1 = 0.8996	–	0.452
283.15 K, x1 = 0.8999	748.12	–
283.15 K, x1 = 1	751.02	–
288.15 K, x1 = 0.1016	–	0.923
288.15 K, x1 = 0.1019	734.04	–
288.15 K, x1 = 0.2002	–	0.856
288.15 K, x1 = 0.2041	734.47	–
288.15 K, x1 = 0.3003	–	0.793
288.15 K, x1 = 0.3077	735.1	–
288.15 K, x1 = 0.3999	735.77	–
288.15 K, x1 = 0.4013	–	0.726
288.15 K, x1 = 0.4992	–	0.664
288.15 K, x1 = 0.5005	736.66	–
288.15 K, x1 = 0.6005	–	0.601
288.15 K, x1 = 0.6066	737.84	–
288.15 K, x1 = 0.6866	738.97	–
288.15 K, x1 = 0.7	–	0.54
288.15 K, x1 = 0.7973	740.88	–
288.15 K, x1 = 0.8005	–	0.481
288.15 K, x1 = 0.8996	–	0.426
288.15 K, x1 = 0.8999	743.23	–
288.15 K, x1 = 1	745.85	–
293.15 K, x1 = 0.1016	–	0.855
293.15 K, x1 = 0.1019	730.2	–
293.15 K, x1 = 0.2002	–	0.795
293.15 K, x1 = 0.2041	730.55	–
293.15 K, x1 = 0.3003	–	0.743
293.15 K, x1 = 0.3077	731.09	–
293.15 K, x1 = 0.3999	731.66	–
293.15 K, x1 = 0.4013	–	0.678
293.15 K, x1 = 0.4992	–	0.622
293.15 K, x1 = 0.5005	732.44	–
293.15 K, x1 = 0.6005	–	0.563
293.15 K, x1 = 0.6066	733.47	–
293.15 K, x1 = 0.6866	734.47	–
293.15 K, x1 = 0.7	–	0.507
293.15 K, x1 = 0.7973	736.17	–
293.15 K, x1 = 0.8005	–	0.454
293.15 K, x1 = 0.8996	–	0.402
293.15 K, x1 = 0.8999	738.3	–
293.15 K, x1 = 1	740.65	–
298.15 K, x1 = 0.1016	–	0.797
298.15 K, x1 = 0.1019	726.35	–
298.15 K, x1 = 0.2002	–	0.742
298.15 K, x1 = 0.2041	726.62	–
298.15 K, x1 = 0.3003	–	0.692
298.15 K, x1 = 0.3077	727.06	–
298.15 K, x1 = 0.3999	727.53	–
298.15 K, x1 = 0.4013	–	0.635
298.15 K, x1 = 0.4992	–	0.584
298.15 K, x1 = 0.5005	728.19	–
298.15 K, x1 = 0.6005	–	0.531
298.15 K, x1 = 0.6066	729.07	–
298.15 K, x1 = 0.6866	729.94	–
298.15 K, x1 = 0.7	–	0.479
298.15 K, x1 = 0.7973	731.44	–
298.15 K, x1 = 0.8005	–	0.428
298.15 K, x1 = 0.8996	–	0.379
298.15 K, x1 = 0.8999	733.33	–
298.15 K, x1 = 1	735.4	–
303.15 K, x1 = 0.1016	–	0.744
303.15 K, x1 = 0.1019	722.46	–
303.15 K, x1 = 0.2002	–	0.695
303.15 K, x1 = 0.2041	722.68	–
303.15 K, x1 = 0.3003	–	0.65
303.15 K, x1 = 0.3077	723.02	–
303.15 K, x1 = 0.3999	723.38	–
303.15 K, x1 = 0.4013	–	0.597
303.15 K, x1 = 0.4992	–	0.55
303.15 K, x1 = 0.5005	723.93	–
303.15 K, x1 = 0.6005	–	0.5
303.15 K, x1 = 0.6066	724.65	–
303.15 K, x1 = 0.6866	725.39	–
303.15 K, x1 = 0.7	–	0.452
303.15 K, x1 = 0.7973	726.66	–
303.15 K, x1 = 0.8005	–	0.405
303.15 K, x1 = 0.8996	–	0.358
303.15 K, x1 = 0.8999	728.32	–
303.15 K, x1 = 1	730.1	–
308.15 K, x1 = 0.1016	–	0.698
308.15 K, x1 = 0.1019	718.59	–
308.15 K, x1 = 0.2002	–	0.653
308.15 K, x1 = 0.2041	718.72	–
308.15 K, x1 = 0.3003	–	0.606
308.15 K, x1 = 0.3077	718.96	–
308.15 K, x1 = 0.3999	719.22	–
308.15 K, x1 = 0.4013	–	0.562
308.15 K, x1 = 0.4992	–	0.519
308.15 K, x1 = 0.6005	–	0.474
308.15 K, x1 = 0.7	–	0.428
308.15 K, x1 = 0.8005	–	0.382
